Key:
Bile acid receptor = molecular target: T1, Bile acid receptor (Homo sapiens, UniProt Q96RI1); experiment: Activation of human farnesoid X receptor in FRET assay
T1 sequence (Q96RI1 whole entry): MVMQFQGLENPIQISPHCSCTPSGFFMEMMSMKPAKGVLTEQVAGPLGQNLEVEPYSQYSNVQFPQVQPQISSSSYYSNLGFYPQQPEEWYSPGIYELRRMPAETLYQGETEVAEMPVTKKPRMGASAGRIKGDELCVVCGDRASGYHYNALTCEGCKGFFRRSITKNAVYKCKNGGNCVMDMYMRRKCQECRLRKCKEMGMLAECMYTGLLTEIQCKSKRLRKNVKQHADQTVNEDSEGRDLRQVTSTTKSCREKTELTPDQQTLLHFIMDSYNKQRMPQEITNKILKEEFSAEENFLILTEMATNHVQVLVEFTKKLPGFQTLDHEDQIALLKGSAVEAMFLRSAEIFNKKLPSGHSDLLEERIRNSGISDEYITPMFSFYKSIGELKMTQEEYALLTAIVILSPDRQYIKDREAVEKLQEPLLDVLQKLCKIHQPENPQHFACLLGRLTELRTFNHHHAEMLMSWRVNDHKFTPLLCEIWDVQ

[1] = Inhibition of human Farnesoid X receptor/Retinoid X receptor heterodimer; Antagonistic activity; assay type: functional
Homo sapiens = species: Homo sapiens; experiment: Activation of human Farnesoid X receptor/Retinoic X receptor at 5 uM

SMILES | EC50 (Bile acid receptor) [nM] | Fold activation (Homo sapiens) | further results
O=C(O)/C=C/c1cccc(N(Cc2ccc(/C=C/c3ccccc3)cc2)C(=O)C2CCCCC2)c1 | 255 | – | –
O=C(O)/C=C/c1cccc(N(Cc2ccc(-c3ccc4c(c3)OCO4)cc2)C(=O)C2CCCCC2)c1 | 222 | – | –
CCCCCCOc1c(\C(C)=C/C=C/C(C)=C/C(=O)O)cc(C(C)C)cc1C(C)C | – | – | IC50 [1]: < 10 nM
CC1(C)CCC(C)(C)c2cc(C(Cc3ccc(C(=O)O)cc3)[Si](C)(C)C)ccc21 (stereo unspecified) | – | 91 | –
CN(C)c1ccc(-c2ccc(CN(C(=O)C3CCCCC3)c3cccc(/C=C/C(=O)O)c3)cc2)cc1 | 255 | – | –
CCCC/C(=C\c1ccc(C(=O)O)cc1)c1ccc2c(c1)C(C)(C)CCC2(C)C | – | 85 | –

Source: ChEMBL document CHEMBL1145168, “Farnesoid X receptor: from structure to potential clinical applications” (J Med Chem, 2005)
